In patent US12077503B2, “Substituted cyclic amides and their use as herbicides” (FMC CORPORATION, priority 2015, dated 2024):

Key:
Type in all cases: in vivo
[1] = tested on: barnyardgrass (Echinochloa crus-galli); assay: Test G Pre-Emergence Protocol; conditions: Echinochloa crus-galli, pre-emergence, 312 h, evaluated after 13 days; for pest or weed control at 15.625 g/ha: 15.625 g ai/ha, read-out: Barnyard grass damage rating (100=total damage to plant; 0=no damage to plant); for pest or weed control at 62.5 g/ha: 62.5 g ai/ha, 100=total damage to plant, 0=no damage to plant, read-out: plant damage rating, Barnyardgrass; for pest or weed control at 250 g/ha: 250 g ai/ha, read-out: Barnyardgrass damage rating (100=total damage to plant; 0=no damage to plant)
Method in brief: (§1)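 Pots of seeds in standard soil were grown for one day in a glasshouse (24/16 °C day/night, 14 h light, 65% humidity), then sprayed with compound in acetone/water 50:50 with 0.5% Tween 20 at 15.625, 62.5 or 250 g/ha. Damage was scored after 13 days on a 0 (none) to 100 (total) scale.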

[2] = tested on: corn (Zea mays); assay: Test G Pre-Emergence Protocol; conditions: Zea mays, pre-emergence, 312 h, evaluated after 13 days; for plant injury at 15.625 g/ha: 15.625 g ai/ha; for plant injury at 15.625 g/ha / plant injury at 250 g/ha: read-out: Corn damage rating (100=total damage to plant; 0=no damage to plant); for plant injury at 62.5 g/ha: 62.5 g ai/ha, 100=total damage to plant, 0=no damage to plant, read-out: plant damage rating, Corn; for plant injury at 250 g/ha: 250 g ai/ha
Method in brief: as §1

[3] = tested on: giant foxtail (Setaria faberi); assay: Test G Pre-Emergence Protocol; conditions: Setaria faberi, pre-emergence, 312 h, evaluated after 13 days; for pest or weed control at 15.625 g/ha: 15.625 g ai/ha; for pest or weed control at 15.625 g/ha / pest or weed control at 250 g/ha: read-out: Foxtail, Giant damage rating (100=total damage to plant; 0=no damage to plant); for pest or weed control at 62.5 g/ha: 62.5 g ai/ha, 100=total damage to plant, 0=no damage to plant, read-out: plant damage rating, Foxtail, Giant; for pest or weed control at 250 g/ha: 250 g ai/ha
Method in brief: as §1

[4] = tested on: ivy-leaved morning glory (Ipomoea hederacea); assay: Test G Pre-Emergence Protocol; conditions: Ipomoea, pre-emergence, 312 h, evaluated after 13 days; for pest or weed control at 15.625 g/ha: 15.625 g ai/ha, read-out: Morning-glory, Ivy-leaved damage rating (100=total damage to plant; 0=no damage to plant); for pest or weed control at 62.5 g/ha: 62.5 g ai/ha, 100=total damage to plant, 0=no damage to plant, read-out: plant damage rating, Morningglory, Ivy-leaved; for pest or weed control at 250 g/ha: 250 g ai/ha, read-out: Morningglory, Ivy-leaved damage rating (100=total damage to plant; 0=no damage to plant)
Method in brief: as §1

[5] = tested on: redroot pigweed (Amaranthus retroflexus); assay: Test G Pre-Emergence Protocol; conditions: Amaranthus retroflexus, pre-emergence, 312 h, evaluated after 13 days; for pest or weed control at 15.625 g/ha: 15.625 g ai/ha; for pest or weed control at 15.625 g/ha / pest or weed control at 250 g/ha: read-out: Pigweed, Redroot damage rating (100=total damage to plant; 0=no damage to plant); for pest or weed control at 62.5 g/ha: 62.5 g ai/ha, 100=total damage to plant, 0=no damage to plant, read-out: plant damage rating, Pigweed, Redroot; for pest or weed control at 250 g/ha: 250 g ai/ha
Method in brief: as §1

[6] = tested on: velvetleaf (Abutilon theophrasti); assay: Test G Pre-Emergence Protocol; conditions: Abutilon theophrasti, pre-emergence, 312 h, evaluated after 13 days; for pest or weed control at 15.625 g/ha: 15.625 g ai/ha; for pest or weed control at 15.625 g/ha / pest or weed control at 250 g/ha: read-out: Velvetleaf damage rating (100=total damage to plant; 0=no damage to plant); for pest or weed control at 62.5 g/ha: 62.5 g ai/ha, 100=total damage to plant, 0=no damage to plant, read-out: plant damage rating, Velvetleaf; for pest or weed control at 250 g/ha: 250 g ai/ha
Method in brief: as §1

[7] = tested on: barnyardgrass (Echinochloa crus-galli); assay: Test G Post-Emergence Protocol; conditions: Echinochloa crus-galli, post-emergence, 312 h; for pest or weed control at 15.625 g/ha: 15.625 g ai/ha, evaluated after 13 days (100=total damage to plant; 0=no damage to plant), read-out: Barnyardgrass damage rating; for pest or weed control at 62.5 g/ha: 62.5 g ai/ha, read-out: Barnyardgrass damage rating (100=total damage to plant; 0=no damage to plant); for pest or weed control at 62.5 g/ha / pest or weed control at 250 g/ha: evaluated after 13 days; for pest or weed control at 250 g/ha: 250 g ai/ha, read-out: damage to plant, Barnyardgrass (100=total damage to plant; 0=no damage to plant)
Method in brief: (§2)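 Damage was rated 13 days after treatment from 0 (none) to 100 (plant killed). Compound was applied as a spray at 15.625, 62.5 or 250 g/ha in 50:50 acetone/water containing 0.5% Tween 20, onto 8-day-old potted plants kept in a glasshouse (24/16 °C, 14 h light, 65% humidity).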

[8] = tested on: corn (Zea mays); assay: Test G Post-Emergence Protocol; conditions: Zea mays, post-emergence, 312 h; for plant injury at 15.625 g/ha: 15.625 g ai/ha, evaluated after 13 days (100=total damage to plant; 0=no damage to plant), read-out: Corn damage rating; for plant injury at 62.5 g/ha: 62.5 g ai/ha, read-out: Corn damage rating (100=total damage to plant; 0=no damage to plant); for plant injury at 62.5 g/ha / plant injury at 250 g/ha: evaluated after 13 days; for plant injury at 250 g/ha: 250 g ai/ha, read-out: damage to plant, Corn (100=total damage to plant; 0=no damage to plant)
Method in brief: as §2

[9] = tested on: giant foxtail (Setaria faberi); assay: Test G Post-Emergence Protocol; conditions: Setaria faberi, post-emergence, 312 h; for pest or weed control at 15.625 g/ha: 15.625 g ai/ha, evaluated after 13 days (100=total damage to plant; 0=no damage to plant), read-out: Foxtail, Giant damage rating; for pest or weed control at 62.5 g/ha: 62.5 g ai/ha, read-out: Foxtail, Giant damage rating (100=total damage to plant; 0=no damage to plant); for pest or weed control at 62.5 g/ha / pest or weed control at 250 g/ha: evaluated after 13 days; for pest or weed control at 250 g/ha: 250 g ai/ha, read-out: damage to plant, Foxtail, Giant (100=total damage to plant; 0=no damage to plant)
Method in brief: as §2

[10] = tested on: ivy-leaved morning glory (Ipomoea hederacea); assay: Test G Post-Emergence Protocol; conditions: Ipomoea, post-emergence, 312 h; for pest or weed control at 15.625 g/ha: 15.625 g ai/ha, evaluated after 13 days (100=total damage to plant; 0=no damage to plant), read-out: Morningglory, Ivy-leaved damage rating; for pest or weed control at 62.5 g/ha: 62.5 g ai/ha, read-out: Morningglory, Ivy-leaved damage rating (100=total damage to plant; 0=no damage to plant); for pest or weed control at 62.5 g/ha / pest or weed control at 250 g/ha: evaluated after 13 days; for pest or weed control at 250 g/ha: 250 g ai/ha, read-out: damage to plant, Morningglory, Ivy-leaved (100=total damage to plant; 0=no damage to plant)
Method in brief: as §2

[11] = tested on: redroot pigweed (Amaranthus retroflexus); assay: Test G Post-Emergence Protocol; conditions: Amaranthus retroflexus, post-emergence, 312 h; for pest or weed control at 15.625 g/ha: 15.625 g ai/ha, evaluated after 13 days (100=total damage to plant; 0=no damage to plant), read-out: Pigweed, Redroot damage rating; for pest or weed control at 62.5 g/ha: 62.5 g ai/ha, read-out: Pigweed, Redroot damage rating (100=total damage to plant; 0=no damage to plant); for pest or weed control at 62.5 g/ha / pest or weed control at 250 g/ha: evaluated after 13 days; for pest or weed control at 250 g/ha: 250 g ai/ha, read-out: damage to plant, Pigweed, Redroot (100=total damage to plant; 0=no damage to plant)
Method in brief: as §2

[12] = tested on: velvetleaf (Abutilon theophrasti); assay: Test G Post-Emergence Protocol; conditions: Abutilon theophrasti, post-emergence, 312 h; for pest or weed control at 15.625 g/ha: 15.625 g ai/ha, evaluated after 13 days (100=total damage to plant; 0=no damage to plant), read-out: Velvetleaf damage rating; for pest or weed control at 62.5 g/ha: 62.5 g ai/ha, read-out: Velvetleaf damage rating (100=total damage to plant; 0=no damage to plant); for pest or weed control at 62.5 g/ha / pest or weed control at 250 g/ha: evaluated after 13 days; for pest or weed control at 250 g/ha: 250 g ai/ha, read-out: damage to plant, Velvetleaf (100=total damage to plant; 0=no damage to plant)
Method in brief: as §2

Row | SMILES | pest or weed control at 15.625 g/ha [1] | pest or weed control at 62.5 g/ha [1] | pest or weed control at 250 g/ha [1] | plant injury at 15.625 g/ha [2] | plant injury at 62.5 g/ha [2] | plant injury at 250 g/ha [2] | pest or weed control at 15.625 g/ha [3] | pest or weed control at 62.5 g/ha [3] | pest or weed control at 250 g/ha [3] | pest or weed control at 15.625 g/ha [4] | pest or weed control at 62.5 g/ha [4] | pest or weed control at 250 g/ha [4] | pest or weed control at 15.625 g/ha [5] | pest or weed control at 62.5 g/ha [5] | pest or weed control at 250 g/ha [5] | pest or weed control at 15.625 g/ha [6] | pest or weed control at 62.5 g/ha [6] | pest or weed control at 250 g/ha [6] | pest or weed control at 15.625 g/ha [7] | pest or weed control at 62.5 g/ha [7] | also measured
1 | Cc1c(F)ccc(NC(=O)[C@@H]2C(=O)N(C)C[C@H]2c2ccc(C(F)(F)F)cc2)c1F (racemic) [Compound 1629] | 10% | 0% | 70% | 0% | 10% | 0% | 30% | 50% | 80% | 10% | 40% | 50% | 0% | 0% | 0% | 0% | 0% | 0% | 0% | 30% | pest or weed control at 250 g/ha [7]: 70%; plant injury at 15.625 g/ha [8]: 0%; plant injury at 62.5 g/ha [8]: 10%; plant injury at 250 g/ha [8]: 10%; pest or weed control at 15.625 g/ha [9]: 0%; pest or weed control at 62.5 g/ha [9]: 80%; pest or weed control at 250 g/ha [9]: 80%; pest or weed control at 15.625 g/ha [10]: 20%; pest or weed control at 62.5 g/ha [10]: 20%; pest or weed control at 250 g/ha [10]: 30%; pest or weed control at 15.625 g/ha [11]: 10%; pest or weed control at 62.5 g/ha [11]: 10%; pest or weed control at 250 g/ha [11]: 30%; pest or weed control at 15.625 g/ha [12]: 20%; pest or weed control at 62.5 g/ha [12]: 10%; pest or weed control at 250 g/ha [12]: 0%
2 | CN1C[C@@H](c2ccc(C(F)(F)F)cc2)[C@H](C(=O)Nc2cc(Cl)n[nH]2)C1=O (racemic) [Compound 1632] | 0% | 0% | 0% | 0% | 0% | 0% | 0% | 0% | 0% | 0% | 0% | 0% | 0% | 0% | 0% | 0% | 0% | 0% | 0% | 0% | pest or weed control at 250 g/ha [7]: 10%; plant injury at 15.625 g/ha [8]: 0%; plant injury at 62.5 g/ha [8]: 0%; plant injury at 250 g/ha [8]: 0%; pest or weed control at 15.625 g/ha [9]: 0%; pest or weed control at 62.5 g/ha [9]: 0%; pest or weed control at 250 g/ha [9]: 20%; pest or weed control at 15.625 g/ha [10]: 0%; pest or weed control at 62.5 g/ha [10]: 0%; pest or weed control at 250 g/ha [10]: 0%; pest or weed control at 15.625 g/ha [11]: 0%; pest or weed control at 62.5 g/ha [11]: 0%; pest or weed control at 250 g/ha [11]: 20%; pest or weed control at 15.625 g/ha [12]: 0%; pest or weed control at 62.5 g/ha [12]: 0%; pest or weed control at 250 g/ha [12]: 0%
